Measurements: US8680159B2, “Bradykinin 1 receptor modulating compounds” (Gruenenthal GmbH, priority 2010, dated 2014)

How the values were obtained:
[1] = target: T1, B1R receptor of the rat (CHO K1 cells stably transfected with the B1R gene of the rat) (Rattus norvegicus, UniProt P97583); assay: Functional study on the bradykinin receptor 1 (B1R), Ca2+ fluorescence (Fluo-4) FLIPR/Novostar assay, rB1R cells; type: cell-based; conditions: CHO-K1, 10 μM, read-out: % inhibition (rat B1R) at 10 μM
T1 construct: expressed in transfected cells; host or cells: CHO K1 cells (Chinese hamster ovary), stably transfected
T1 sequence (P97583 1-337): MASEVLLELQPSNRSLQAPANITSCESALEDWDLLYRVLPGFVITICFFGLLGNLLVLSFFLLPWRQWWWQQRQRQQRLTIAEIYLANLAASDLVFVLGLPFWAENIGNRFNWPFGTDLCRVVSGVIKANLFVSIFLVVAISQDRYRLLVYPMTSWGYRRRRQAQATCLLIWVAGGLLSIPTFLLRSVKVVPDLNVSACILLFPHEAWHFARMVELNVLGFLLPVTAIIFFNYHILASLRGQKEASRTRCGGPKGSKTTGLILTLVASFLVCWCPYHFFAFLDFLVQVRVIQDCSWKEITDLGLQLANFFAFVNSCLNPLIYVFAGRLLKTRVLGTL
In short: (§1)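 Test compounds (10 μM) were added first and the Ca2+ rise was scored as % activation against Lys-Des-Arg9-bradykinin (≥50 nM, human) or Des-Arg9-bradykinin (≥1 μM, rat). After 6-20 min, the matching agonist was given at its EC80, and % inhibition relative to maximal achievable inhibition was calculated.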

[2] = target: T2, human B1R receptor (CHO K1 cells stably transfected with the human B1R gene) (Homo sapiens, UniProt P46663); assay: Functional study on the bradykinin receptor 1 (B1R), Ca2+ fluorescence (Fluo-4) FLIPR/Novostar assay, hB1R cells; type: cell-based; conditions: CHO-K1, read-out: % inhibition (human B1R) at 10 μM
T2 construct: expressed in transfected cells; host or cells: CHO K1 cells (Chinese hamster ovary), stably transfected
T2 sequence (P46663 1-353): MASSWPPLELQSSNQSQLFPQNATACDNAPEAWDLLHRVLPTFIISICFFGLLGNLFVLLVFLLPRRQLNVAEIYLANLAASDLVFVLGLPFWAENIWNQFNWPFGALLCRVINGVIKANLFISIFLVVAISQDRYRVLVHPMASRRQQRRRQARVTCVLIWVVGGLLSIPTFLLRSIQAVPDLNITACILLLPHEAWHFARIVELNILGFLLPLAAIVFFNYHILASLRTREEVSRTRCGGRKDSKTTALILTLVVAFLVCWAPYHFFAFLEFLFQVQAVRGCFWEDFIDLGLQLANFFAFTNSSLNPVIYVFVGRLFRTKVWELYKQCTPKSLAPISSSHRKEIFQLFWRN
In short: as §1

SMILES | inhibition at 10 µM [1] [%] | inhibition at 10 µM [2] [%]
CN(C)c1ccc(N2CCC(N(C)C(=O)c3ccc4c(c3)[C@H](NC(=O)c3ccccc3Cl)CC4)CC2)cn1 [Example H-113, (3R)-3-[(2-Chloro-benzoyl)amino]-N-[1-(6-dimethylamino-pyridin-3-yl)-piperidin-4-yl]-N-methyl-2,3-dihydro-1H-indene-5-carboxylic acid amide] | 100 | 98
CN(C(=O)c1ccc2c(c1)[C@H](NC(=O)c1ccccc1Cl)CC2)C1CCC(Oc2ccncc2)CC1 (stereo partly drawn) [Example H-114, (3R)-3-[(2-Chloro-benzoyl)amino]-N-methyl-N-(4-pyridin-4-yloxy-cyclohexyl)-2,3-dihydro-1H-indene-5-carboxylic acid amide] | 96 | 38
CN(C(=O)c1ccc2c(c1)[C@H](NC(=O)c1ccccc1Cl)CC2)C1CCCN(c2ccncc2)C1 (stereo partly drawn) [Example H-115, (3R)-3-[(2-Chloro-benzoyl)amino]-N-methyl-N-(1-pyridin-4-yl-piperidin-3-yl)-2,3-dihydro-1H-indene-5-carboxylic acid amide] | 63 | 13
CN(C(=O)c1ccc2c(c1)[C@H](NC(=O)c1ccccc1Cl)CC2)C1CCCN(c2ccncc2)CC1 (stereo partly drawn) [Example H-116, (3R)-3-[(2-Chloro-benzoyl)amino]-N-methyl-N-(1-pyridin-4-yl-azepan-4-yl)-2,3-dihydro-1H-indene-5-carboxylic acid amide] | 103 | 99
CN(C(=O)c1ccc2c(c1)[C@H](NC(=O)c1ccccc1Cl)CC2)C1CCN(c2ccncc2F)CC1 [Example H-117, (3R)-3-[(2-Chloro-benzoyl)amino]-N-[1-(3-fluoro-pyridin-4-yl)-piperidin-4-yl]-N-methyl-2,3-dihydro-1H-indene-5-carboxylic acid amide] | 105 | 99
CN(C)c1nccc(N2CCC(N(C)C(=O)c3ccc4c(c3)[C@H](NC(=O)c3ccccc3Cl)CC4)CC2)n1 [Example H-118, (3R)-3-[(2-Chloro-benzoyl)amino]-N-[1-(2-dimethylamino-pyrimidin-4-yl)-piperidin-4-yl]-N-methyl-2,3-dihydro-1H-indene-5-carboxylic acid amide] | 104 | 100
CC(C)CC(=O)N(C(C)C)[C@@H]1CCc2ccc(C(=O)N(C)C3CCN(c4ccnc(N(C)C)c4)CC3)cc21 [Example H-119, (3R)-N-[1-(2-Dimethylamino-pyridin-4-yl)-pipendin-4-yl]-3-[isopropyl-(3-methyl-butanoyl)-amino]-N-methyl-2,3-dihydro-1H-indene-5-carboxylic acid amide] | 52 | 91
CC(C)CC(=O)N(C(C)C)[C@@H]1CCc2ccc(C(=O)N(C)C3CCN(c4ccnc(N(C)C)n4)CC3)cc21 [Example H-120, (3R)-N-[1-(2-Dimethylamino-pyrimidin-4-yl)-pipendin-4-yl]-3-[isopropyl-(3-methyl-butanoyl)-amino]-N-methyl-2,3-dihydro-1H-indene-5-carboxylic acid amide] | 78 | 98
Cc1nccc(N2CCC(N(C)C(=O)c3ccc4c(c3)[C@H](NC(=O)c3ccccc3Cl)CC4)CC2)n1 [Example H-122, (3R)-3-[(2-Chloro-benzoyl)amino]-N-methyl-N-[1-(2-methyl-pyrimidin-4-yl)-piperidin-4-yl]-2,3-dihydro-1H-indene-5-carboxylic acid amide] | 103 | 100
CN(C(=O)c1ccc2c(c1)[C@H](NC(=O)c1ccccc1Cl)CC2)C1CCN(c2ccnc(C#N)c2)CC1 [Example H-123, (3R)-3-[(2-Chloro-benzoyl)amino]-N-[1-(2-cyano-pyridin-4-yl)-piperidin-4-yl]-N-methyl-2,3-dihydro-1H-indene-5-carboxylic acid amide] | 107 | 97
